# How the values were obtained:
# [1] = test system: resistente Herpesviren; assay: Local treatment of herpes keratitis produced with resistant strains; assay type: in vivo; settings: Kaninchen, lokal, bis zu 7 mal täglich, bis zu 11 Tage; JDU-MP 0,1 bis 1 %, ÄDU-MP 0,1 bis 8 %, TFT-MP 0,1 bis 2 %, ARA-A-MP 0,2 bis 2 %, Acycloguanosin-Monophosphat 0,5 bis 5 %
# Description: Man züchtet Herpes-Viren in Gewebekulturen von menschlichen Fibroblastzellen über 1 bis 5 Passagen in Gegenwart von Nukleosiden, wie beispielsweise ÄDU (Äthyldesoxyuridin), Konzentration: 20 µg/ml, TFT (Trifluorthymidin) Konzentration 5 bis 10 µg/ml, ARA-A-MP (Arabinofuranosyladenin-Monophosphat),Konzentration 20 µg/ml, Acycloguanosin (ACG), Konzentration 5 bis 30 µg/ml, wobei der Saatvirus auf die Cornea der Tiere (Hamster, Kaninchen) durch Aufträufeln übertragen wird. Zwei Stunden nach der Übertragung erfolgt die Behandlung der Cornea lokal mit den entsprechenden Nukleosiden in den oben angegebenen Konzentrationen. Dabei zeigt sich, daß die Viren für die Nukleoside resistent werden. Die Bewertung der Infektion erfolgt durch Anfärben der Hornhaut mit Fluorescin-Na-Lösung (1 %) und anschließende Farbphotodokumentation.
# Die Behandlung der Herpes-Keratitis bei Kaninchen, erzeugt mit den resistenten Stämmen, erfolgt lokal mit folgenden Wirkstoffen: JDU-MP (Joddesoxyuridin-Monophosphat), Konzentration 0,1 bis 1 %, ÄDU-MP (Äthyldesoxyuridin-Monophosphat), Konzentration: 0,1 bis 8 %, TFT-MP (Trifluor- thymidin-Monophosphat), Konzentration: 0,1 bis 2 %, ARA-A-MP (Arabinofuranosyladenin-Monophosphat), Konzentration: 0,2 bis 2 %, Acycloguanosin-Monophosphat, Konzentration: 0,5 bis 5 %, bis zu 7 mal täglich für die Dauer von bis zu 11 Tagen.
# [2] = test system: Herpes-Simplex-Viren; assay: Inhibition of herpes simplex virus replication in tissue cultures of chick embryo fibroblasts; assay type: cell-based; settings: Gewebekulturen von Hühnerembryofibroblasten; Konzentration 10 µg/ml
# Description: Dem «-XDU-Monophosphat kommt eine ungewöhnliche Eigenschaft zu, die vom Fachmann nicht vorhersehbar war. Es ist nämlich in der Lage, die Vermehrung von Herpes-Simplex-Viren zu hemmen. In Gewebekulturen von HUhnerembryofibroblasten hemmt α-ÄDU-MP in einer Konzentration von 10 µg/ml deutlich die Virusvermehrung. Unter gleicher Bedingung ist α-ÄDU selbst ohne Wirkung.
# [3] = test system: DNS; assay: Incorporation into DNA (stated property, no method described); settings: acts virostatically; no test described
SMILES,Bekämpfung der durch resistente Herpesviren verursachten Infektion (Herpes-Keratitis) [1],Hemmung der Virusvermehrung [2],Einbau in die DNS [3]
Nc1nc2c(ncn2COCCOP(=O)(O)O)c(=O)[nH]1 [Acycloguanosin-Monophosphat],wirksam bekämpfen,,
"O=c1[nH]c(=O)n([C@H]2C[C@H](O)[C@@H](COP(=O)(O)O)O2)cc1I [JDU-MP, Joddesoxyuridin-Monophosphat]",wirksam bekämpfen,,
"O=c1[nH]c(=O)n([C@H]2C[C@H](O)[C@@H](COP(=O)(O)O)O2)cc1C(F)(F)F [TFT-MP, Trifluor- thymidin-Monophosphat]",wirksam bekämpfen,,
"CCc1cn([C@H]2C[C@H](O)[C@@H](COP(=O)(O)O)O2)c(=O)[nH]c1=O [ÄDU-MP, Äthyldesoxyuridin-Monophosphat]",wirksam bekämpfen,,
"CCc1cn([C@@H]2C[C@H](O)[C@@H](CO)O2)c(=O)[nH]c1=O [α-ÄDU, α-5-Äthyl-2'-deoxyuridin, reference compound]",,ohne Wirkung,
"CCc1cn([C@@H]2C[C@H](O)[C@@H](COP(=O)(O)O)O2)c(=O)[nH]c1=O [α-ÄDU-MP, α-5-Äthyl-2'-deoxyuridin-5'-monophosphat]",,deutlich,ohne in die DNS eingebaut zu werden

# Source: patent EP0015584A2, “Nucleotides, methods for their preparation and medicaments” (Gauri, Kailash Kumar, Dr. Prof., priority 1979, dated 1980)
